Source: ChEMBL document CHEMBL6092134, “N-acyl-4-arylaminopiperidines: Design and synthesis of a potential antimicrobial scaffold” (Bioorg Med Chem Lett, 2024)

What was measured:
[1] = test system: Staphylococcus aureus; assay: Antibacterial activity against methicillin-resistant Staphylococcus aureus assessed as inhibition of bacterial growth at 50 uM by microdilution assay relative to control; assay type: functional
[2] = test system: Pseudomonas aeruginosa; assay: Antibacterial activity against Pseudomonas aeruginosa assessed as inhibition of bacterial growth at 50 uM by microdilution assay relative to control; assay type: functional
[3] = test system: Klebsiella pneumoniae; assay: Antibacterial activity against Klebsiella pneumoniae assessed as inhibition of bacterial growth at 50 uM by microdilution assay relative to control; assay type: functional
[4] = test system: Staphylococcus aureus; assay: Antibacterial activity against methicillin-resistant Staphylococcus aureus assessed as inhibition of bacterial growth by microdilution assay; assay type: functional, organism-based

| Structure (SMILES) | inhibition at 50 µM [1] [%] | inhibition at 50 µM [2] [%] | inhibition at 50 µM [3] [%] | IC50 [4] [µM] |
| --- | --- | --- | --- | --- |
| COc1cc(/C=C/C(=O)N2CCC(Nc3ccc(F)cc3)CC2)ccc1O | 0 | 0 | 0 |  |
| O=C(/C=C/c1ccc2c(c1)OCCCO2)N1CCC(Nc2ccc(Cl)cc2)CC1 | 0 | 5 | 27 |  |
| CC(C)c1ccc(NC2CCN(C(=O)/C=C/c3ccc4c(c3)OCCO4)CC2)cc1 | 26 | 10 | 29 |  |
| COc1cc(/C=C/C(=O)N2CCC(Nc3cccc(Cl)c3)CC2)ccc1O | 0 | 14 | 0 |  |
| COc1cc(/C=C/C(=O)N2CCC(Nc3cccc(F)c3)CC2)ccc1O | 0 | 4 | 29 |  |
| COc1cc(/C=C/C(=O)N2CCC(Nc3ccc(Cl)cc3)CC2)ccc1O | 0 | 18 | 37 |  |
| COc1cc(/C=C/C(=O)N2CCC(Nc3ccccc3)CC2)ccc1O | 8 | 20 | 37 |  |
| CC(C)c1ccc(NC2CCN(C(=O)/C=C/c3ccc4c(c3)OCCCO4)CC2)cc1 | 0 | 14 | 54 |  |
| COc1ccc(NC2CCN(C(=O)/C=C/c3ccc(O)c(OC)c3)CC2)cc1 | 4 | 0 | 0 |  |
| CC(C)c1ccc(NC2CCN(C(=O)/C=C/c3ccc4c(c3)OCO4)CC2)cc1 | 0 | 27 | 28 |  |
| COc1cc(/C=C/C(=O)N2CCC(NCc3ccccc3)CC2)ccc1O | 0 | 0 | 41 |  |
| O=C(/C=C/c1ccc2c(c1)OCCO2)N1CCC(Nc2ccccc2)CC1 | 0 | 14 | 35 |  |
| O=C(/C=C/c1ccc2c(c1)OCCO2)N1CCC(Nc2ccc(Cl)cc2)CC1 | 24 | 10 | 19 | 60.5 |
| COc1ccc(NC2CCN(C(=O)/C=C/c3ccc4c(c3)OCCO4)CC2)cc1 | 30 | 7 | 40 |  |
| O=C(/C=C/c1ccc2c(c1)OCCCO2)N1CCC(Nc2ccccc2)CC1 | 0 | 6 | 40 |  |
| CC(C)c1ccc(NC2CCN(C(=O)/C=C/c3ccccc3)CC2)cc1 | 42 | 20 | 27 |  |
| O=C(/C=C/c1ccc2c(c1)OCO2)N1CCC(Nc2ccccc2)CC1 | 0 | 0 | 24 |  |
| O=C(/C=C/c1ccccc1)N1CCC(Nc2ccccc2)CC1 | 36 | 0 | 0 |  |
| COc1cc(/C=C/C(=O)N2CCC(Nc3ccc4c(c3)OCCO4)CC2)ccc1O | 3 | 0 | 23 |  |
| COc1ccc(NC2CCN(C(=O)/C=C/c3ccccc3)CC2)cc1 | 15 | 7 | 21 |  |
| COc1ccc(NC2CCN(C(=O)/C=C/c3ccc4c(c3)OCO4)CC2)cc1 | 0 | 0 | 44 |  |
| COc1cc(/C=C/C(=O)N2CCC(Nc3cccc4ccccc34)CC2)ccc1O | 0 | 0 | 0 |  |
| COc1cc(/C=C/C(=O)N2CCC(Nc3ccc(C(C)C)cc3)CC2)ccc1O | 0 | 25 | 20 |  |
| O=C(/C=C/c1ccccc1)N1CCC(Nc2ccc(Cl)cc2)CC1 | 22 | 37 | 38 |  |
| COc1cc(/C=C/C(=O)N2CCC(Nc3ccc(OC(F)(F)F)cc3)CC2)ccc1O | 0 | 16 | 0 |  |
| COc1ccc(NC2CCN(C(=O)/C=C/c3ccc4c(c3)OCCCO4)CC2)cc1 | 0 | 0 | 30 | 50.1 |
| COc1cc(/C=C/C(=O)N2CCC(Nc3ccc(C)cc3)CC2)ccc1O | 0 | 6 | 49 |  |
| O=C(/C=C/c1ccc2c(c1)OCO2)N1CCC(Nc2ccc(Cl)cc2)CC1 | 20 | 13 | 32 |  |
